Measured values reported in US6066628A, “Non-iron metalloporphyrins and methods of use” (Emory University, priority 1998, dated 2000).

Key:
Y. enterocolitica [1] = assay: Disc diffusion sensitivity test; assay type: cell-based; conditions: disc ~50 μg MP
N. meningitidis = assay: Disc diffusion sensitivity test; assay type: cell-based; conditions: disc ~50 μg MP
E. coli = assay: Disc diffusion sensitivity test; assay type: cell-based, Escherichia coli; conditions: E. coli; disc ~50 μg MP
P. mirabills = assay: Disc diffusion sensitivity test; assay type: cell-based, Proteus mirabilis; conditions: P. mirabilis; disc ~50 μg MP
K. pneumoniae = assay: Disc diffusion sensitivity test; assay type: cell-based, Klebsiella pneumoniae; conditions: K. pneumoniae; disc ~50 μg MP
K. oxytoca = assay: Disc diffusion sensitivity test; assay type: cell-based, Klebsiella oxytoca; conditions: K. oxytoca; disc ~50 μg MP
Ps. aeruginosa = assay: Disc diffusion sensitivity test; assay type: cell-based, Pseudomonas aeruginosa; conditions: disc ~50 μg MP
C. freundii = assay: Disc diffusion sensitivity test; assay type: cell-based, Citrobacter freundii; conditions: C. freundii; disc ~50 μg MP
E. aerogenes = assay: Disc diffusion sensitivity test; assay type: cell-based, Enterobacter aerogenes; conditions: E. aerogenes; disc ~50 μg MP
F. menigosepticum = assay: Disc diffusion sensitivity test; assay type: cell-based, Flavobacterium meningosepticum; conditions: F. meningosepticum; disc ~50 μg MP
S. aureus [2] = assay: Disc diffusion sensitivity test; assay type: cell-based, Staphylococcus aureus; conditions: for diameter (mm) of the inhibition zone: S. aureus, disc ~50 μg MP
B. subtilis = assay: Disc diffusion sensitivity test; assay type: cell-based, Bacillus subtilis; conditions: for diameter (mm) of the inhibition zone: B. subtilis, disc ~50 μg MP
E. faecalis = assay: Disc diffusion sensitivity test; assay type: cell-based, Enterococcus faecalis; conditions: disc ~50 μg MP
Y. enterocolitica [3] = assay: microbe, parasite or virus in culture; assay type: cell-based
S. aureus [4] = assay type: cell-based, Staphylococcus aureus; conditions: for Minimal inhibitory concentration (MIC): methicillin-resistant S. aureus IR219, Nutrient broth (Table 2); for antibacterial activity: S. aureus
M. smegmatis [5] = assay type: cell-based, Mycobacterium smegmatis; conditions: M. smegmatis LR222; LB + Tween 80 (Table 2)
S. marcescens = assay: Disc diffusion sensitivity test; assay type: cell-based, Serratia marcescens; conditions: S. marcescens; disc ~50 μg MP
S. pyogenes A = assay: Disc diffusion sensitivity test; assay type: cell-based, Streptococcus pyogenes; conditions: disc ~50 μg MP
M. smegmatis [6] = assay: Disc diffusion sensitivity test; assay type: cell-based, Mycobacterium smegmatis; conditions: disc ~50 μg MP
M. bovis = assay type: cell-based, Mycobacterium bovis; conditions: disc ~50 μg MP
S. crevisieae = assay: Disc diffusion sensitivity test; assay type: cell-based, Saccharomyces cerevisiae; conditions: S. cerevisiae; disc ~50 μg MP
M tuber. H37Rv = assay: Disc diffusion sensitivity test; assay type: cell-based, Mycobacterium tuberculosis; conditions: disc ~50 μg MP
M tuber. H37Pa = assay: Disc diffusion sensitivity test; assay type: cell-based, Mycobacterium tuberculosis; conditions: disc ~50 μg MP
bacteria = assay type: cell-based; conditions: listed as Manganese (+2)-meso-tetra-4-sulfonatophenyl porphine
Y. enterocolitica [7] = assay: Minimal bactericidal concentration; assay type: cell-based; conditions: reduces plating efficiency more than 99.9%; minimal exposure to light
S. aureus [8] = assay: Minimal bactericidal concentration; assay type: cell-based, Staphylococcus aureus; conditions: reduces plating efficiency more than 99.9%; minimal exposure to light
Experimental: Minimal bactericidal concentrations (MBCs) were determined essentially the same way as MICs except that the amount of killing with a particular concentration of porphyrin derivative was determined by plating on solid microbiological media (LB plates or LB+Tween 80). Media were solidified by the incorporation of 1.5% agar (Difco Laboratories). Concentrations of porphyrins that produced 99.9% reduction in bacterial counts were considered bactericidal [Hindler et al. (1994) supra].
MBC were determined by plating bacterial cultures that have been incubate
in the presence of MPs at concentrations higher than MIC. MBC was defined
as a concentration of a particular MP which reduces the plating efficienc
more than 99.9%. Experiments were done with minimal exposure to light
(addition of porphyrins waa done in the presence of artifical light).

M. smegmatis [9] = assay: Minimal bactericidal concentration; assay type: cell-based, Mycobacterium smegmatis; conditions: reduces plating efficiency more than 99.9%; minimal exposure to light

Structure (SMILES)	diameter (mm) of the inhibition zone (Y. enterocolitica [1])	diameter (mm) of the inhibition zone (N. meningitidis)	diameter (mm) of the inhibition zone (E. coli)	diameter (mm) of the inhibition zone (P. mirabills)	diameter (mm) of the inhibition zone (K. pneumoniae)	diameter (mm) of the inhibition zone (K. oxytoca)	diameter (mm) of the inhibition zone (Ps. aeruginosa)	diameter (mm) of the inhibition zone (C. freundii)	diameter (mm) of the inhibition zone (E. aerogenes)	diameter (mm) of the inhibition zone (F. menigosepticum)	diameter (mm) of the inhibition zone (S. aureus [2])	diameter (mm) of the inhibition zone (B. subtilis)	diameter (mm) of the inhibition zone (E. faecalis)	Minimal inhibitory concentration (MIC) (Y. enterocolitica [3])	Minimal inhibitory concentration (MIC) (S. aureus [4]) [µg/mL]	Minimal inhibitory concentration (MIC) (M. smegmatis [5]) [µg/mL]	diameter (mm) of the inhibition zone (S. marcescens)	diameter (mm) of the inhibition zone (M. smegmatis [6])	diameter (mm) of the inhibition zone (M. bovis)	diameter (mm) of the inhibition zone (S. crevisieae)	also measured
C=CC1=C(C)c2cc3[n-]c(cc4nc(cc5[n-]c(cc1n2)c(C)c5CCC(=O)O)C(CCC(=O)O)=C4C)c(C)c3C=C.[Ti+2] [Ti-PPIX]	-	-	-	-	-	-	-	-	-	-	-	12 mm	-	> 40	40	> 40					
C=CC1=C(C)c2cc3[n-]c(cc4nc(cc5[n-]c(cc1n2)c(C)c5CCC(=O)O)C(CCC(=O)O)=C4C)c(C)c3C=C.[Cr+2] [Cr-PPIX]	-	-					-				10 mm	-	-	20	> 40	20	-	-	-	-	diameter (mm) of the inhibition zone (S. pyogenes A): -
C=CC1=C(C)c2cc3[n-]c(cc4nc(cc5[n-]c(cc1n2)c(C)c5C=C)C(C)=C4CCC(=O)O)c(CCC(=O)O)c3C.[Zn+2] [Zn-PPIX]	-	10 mm					-				12 mm	-	-	> 40	3.2	20	-	-	-	-	antibacterial activity (S. aureus [4]): some activity
O=S(=O)([O-])c1ccc(-c2c3nc(c(-c4ccc(S(=O)(=O)[O-])cc4)c4ccc([n-]4)c(-c4ccc(S(=O)(=O)[O-])cc4)c4nc(c(-c5ccc(S(=O)(=O)[O-])cc5)c5ccc2[n-]5)C=C4)C=C3)cc1.[Cl-].[Mn+3] [Mn-meso, Mnmeso-tetra(4-sulfonatophenyl)-porphine chloride]	-	-	-	-	-	-	-	-	-	-	-	-					-				diameter (mm) of the inhibition zone (M tuber. H37Rv): -; diameter (mm) of the inhibition zone (M tuber. H37Pa): -; antibacterial activity (bacteria): inactive
C=CC1=C(C)c2cc3[n-]c(cc4nc(cc5[n-]c(cc1n2)c(C)c5CCC(=O)O)C(CCC(=O)O)=C4C)c(C)c3C=C.[Ru+2] [Ru-PPIX]	-	11 mm					-			-	12 mm	-	-	> 40	5	20	-	-	-	-	antibacterial activity (S. aureus [4]): some activity; Minimal bactericidal concentration (MBC) (Y. enterocolitica [7]): > 40; Minimal bactericidal concentration (MBC) (S. aureus [8]): 10; Minimal bactericidal concentration (MBC) (M. smegmatis [9]): > 20
C=CC1=C(C)C2=Cc3c(C=C)c(C)c4[n]3[Mg][n]3c(c(C)c(CCC(=O)O)c3=CC3=NC(=C4)C(C)=C3CCC(=O)O)=CC1=N2 [Mg-PPIX]	-	-	-	-	-	-	-	-	-	-			-								zone of inhibition at 50 µg/disc (S. aureus [2]; Staphylococcus aureus, read-out: diameter (mm) of the inhibition zone): 15 mm; zone of inhibition at 50 µg/disc (B. subtilis; Bacillus subtilis, read-out: diameter (mm) of the inhibition zone): 15 mm; MIC (S. aureus [4]; Staphylococcus aureus, read-out: Minimal inhibitory concentration (MIC)): > 10 µg/mL
C=Cc1c2[n-]c(c1C)/C=c1\[n-]/c(c(C)c1C=C)=C\c1[n-]c(c(CCC(=O)O)c1C)C=c1[n-]/c(c(C)c1CCC(=O)O)=C\2.[Sn+4] [Sn-PPIX, tin-protoporphyrin IX]	-	-					-				-	-	-	20	> 40	20	-	-	-	-	diameter (mm) of the inhibition zone (S. pyogenes A): -
C=Cc1c(C)c2cc3[nH]c(cc4nc(cc5nc(cc1[nH]2)C(C)=C5CCC(=O)[O-])C(CCC(=O)[O-])=C4C)c(C)c3C=C.[Co+2] [Co-PPIX]	-	-					-				15 mm	-	-	20	40	20	-	-	-	18 mm	diameter (mm) of the inhibition zone (S. pyogenes A): -
C=CC1=C(C)c2cc3[n-]c(cc4nc(cc5[n-]c(cc1n2)c(C)c5CCC(=O)O)C(CCC(=O)O)=C4C)c(C)c3C=C.[Pd+2] [Pd-PPIX]		-	-	-	-	-	-	-	-	-	-		-	> 40	50	20	-		-		
